Active and inactive are the calls of the source. The rule behind the calls is not given here.
Key:
[1] = biological target: T1, Amyloid-beta precursor protein (Homo sapiens, UniProt P05067); test: Inhibition of human amyloid beta (1 to 42) aggregation at 1 to 100 uM after 24 hrs by thioflavin-T fluorescence assay
[2] = biological target: T1, Amyloid-beta precursor protein; test: Inhibition of human amyloid beta (1 to 42) aggregation after 24 hrs by thioflavin-T fluorescence assay
[3] = biological target: T1, Amyloid-beta precursor protein; test: Inhibition of amyloid beta (1 to 42)-mediated neurotoxicity in human SH-SY5Y cells assessed as increase in cell viability after 48 hrs by MTT assay; type: cell-based
[4] = biological target: T1, Amyloid-beta precursor protein; test: Inhibition of human amyloid beta (1 to 42) beta-sheet formation at 50 uM after 12 to 24 hrs by CD-spectra analysis
[5] = biological target: T1, Amyloid-beta precursor protein; test: Inhibition of human amyloid beta (1 to 42) fibril formation at 50 uM after 24 hrs by transmission electron microscopic analysis
[6] = biological target: T1, Amyloid-beta precursor protein; test: Inhibition of human amyloid beta (1 to 42) aggregates by measuring monomer concentration at 20 uM after 48 hrs by thermodynamic stability assay
[7] = biological target: T1, Amyloid-beta precursor protein; test: Inhibition of amyloid beta (1 to 42)-mediated neurotoxicity in human SH-SY5Y cells assessed as increase in cell viability at 20 uM after 48 hrs by MTT assay; type: cell-based
[8] = biological target: T1, Amyloid-beta precursor protein; test: Inhibition of human amyloid beta (1 to 42) oligomerization assessed as decrease in trimer formation at 50 uM after 2 hrs by Western blot analysis
[9] = biological target: T1, Amyloid-beta precursor protein; test: Inhibition of human amyloid beta (1 to 42) oligomerization at 90 uM after 24 to 144 hrs by Dot blot analysis
[10] = biological target: T1, Amyloid-beta precursor protein; test: Inhibition of human amyloid beta (1 to 42) oligomerization assessed as decrease in trimer formation at 25 uM after 2 hrs by Western blot analysis

T1 sequence (P05067 whole entry): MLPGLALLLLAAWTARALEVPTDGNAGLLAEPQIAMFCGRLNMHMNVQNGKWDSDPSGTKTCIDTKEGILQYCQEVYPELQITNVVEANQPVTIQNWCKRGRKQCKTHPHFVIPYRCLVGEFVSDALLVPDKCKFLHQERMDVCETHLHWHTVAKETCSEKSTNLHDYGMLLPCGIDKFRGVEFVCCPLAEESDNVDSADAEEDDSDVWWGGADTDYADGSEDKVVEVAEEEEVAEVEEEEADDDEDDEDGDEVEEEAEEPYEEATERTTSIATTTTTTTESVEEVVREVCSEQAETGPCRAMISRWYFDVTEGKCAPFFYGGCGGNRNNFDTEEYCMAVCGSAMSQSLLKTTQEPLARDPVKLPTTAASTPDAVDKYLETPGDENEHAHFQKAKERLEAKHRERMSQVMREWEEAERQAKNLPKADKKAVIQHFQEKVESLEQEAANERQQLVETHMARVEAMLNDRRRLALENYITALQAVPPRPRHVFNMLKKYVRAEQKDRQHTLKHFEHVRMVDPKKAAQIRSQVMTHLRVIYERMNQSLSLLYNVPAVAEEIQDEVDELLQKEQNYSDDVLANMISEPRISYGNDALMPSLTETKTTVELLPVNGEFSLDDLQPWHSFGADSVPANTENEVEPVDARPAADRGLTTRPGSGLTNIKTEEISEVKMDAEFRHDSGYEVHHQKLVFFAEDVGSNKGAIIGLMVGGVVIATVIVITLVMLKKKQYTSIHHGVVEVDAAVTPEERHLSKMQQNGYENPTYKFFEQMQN

O=C(/C=C/c1ccc(O)c(O)c1)O[C@@H]1[C@H](O)C[C@@](O)(C(=O)O)C[C@H]1OC(=O)/C=C/c1ccc(O)c(O)c1
inhibition [1]: Active | IC50 [2]: 4.7 µM

COC(=O)[C@]1(O)C[C@@H](OC(=O)/C=C/c2ccc(O)c(O)c2)[C@@H](OC(=O)/C=C/c2ccc(O)c(O)c2)[C@H](OC(=O)/C=C/c2ccc(O)c(O)c2)C1
inhibition [1]: Active | IC50 [2]: 3 µM

O=C(/C=C/c1ccc(O)c(O)c1)O[C@H]1[C@H](O)C[C@](OC(=O)/C=C/c2ccc(O)c(O)c2)(C(=O)O)C[C@H]1OC(=O)/C=C/c1ccc(O)c(O)c1
inhibition [1]: Active | IC50 [2]: 2.2 µM

O=C(/C=C/c1ccc(O)c(O)c1)O[C@H]1[C@H](O)C[C@](O)(C(=O)O)C[C@H]1OC(=O)/C=C/c1ccc(O)c(O)c1
inhibition [3]: Dose-dependent effect | inhibition [4]: Active | inhibition [5]: Active | inhibition [1]: Active | IC50 [2]: 0.1 µM | Activity [6]: 10 µM | Activity [7]: 78.9%

O=C(O)[C@]1(O)C[C@@H](O)[C@@H](O)[C@H](O)C1 (relative stereo) [QUINIC ACID]
inhibition [8]: 100% | inhibition [1]: inactive | IC50 [2]: > 100 µM | Activity [6]: 1.2 µM

O=C(/C=C/c1ccc(O)c(O)c1)O[C@@H]1C[C@](O)(C(=O)O)C[C@@H](OC(=O)/C=C/c2ccc(O)c(O)c2)[C@H]1O
inhibition [1]: Active | IC50 [2]: 16.4 µM

O=C(O)/C=C/c1ccccc1 [CINNAMIC ACID]
inhibition [1]: inactive | IC50 [2]: > 100 µM

COC(=O)[C@]1(O)C[C@@H](O)[C@@H](O)[C@H](OC(=O)/C=C/c2ccc(O)c(O)c2)C1 [CHLOROGENIC ACID METHYL ESTER]
inhibition [1]: inactive | IC50 [2]: > 100 µM

O=C(/C=C/c1ccc(O)c(O)c1)O[C@@H]1C[C@](O)(C(=O)O)C[C@@H](O)[C@H]1O [CHLOROGENIC ACID]
IC50 [2]: 92.9 µM | inhibition [2]: Dose-dependent effect

O=C(/C=C/c1ccc(O)c(O)c1)O[C@@H]1C[C@](O)(C(=O)O)C[C@@H](OC(=O)/C=C/c2ccc(O)c(O)c2)[C@H]1OC(=O)/C=C/c1ccc(O)c(O)c1
inhibition [3]: Dose-dependent effect | inhibition [9]: Active | inhibition [8]: 63.1% | inhibition [4]: Active | inhibition [5]: Active | inhibition [1]: Active | IC50 [2]: 0.3 µM | Activity [6]: 27 µM | inhibition [10]: 87.6% | Activity [7]: 96.1%

O=C(O)/C=C/c1ccc(O)c(O)c1 [CAFFEIC ACID]
IC50 [2]: 32.8 µM | inhibition [2]: Dose-dependent effect

Reference: ChEMBL document CHEMBL2146368, “Protective effects of caffeoylquinic acids on the aggregation and neurotoxicity of the 42-residue amyloid β-protein” (Bioorg Med Chem, 2012)
